The text below walks through data of patent publication US5284850A, “Terpene amino alcohols and medicinal uses thereof” (Kuraray Co., Ltd., priority 1985, dated 1994).

In series [1] the test system is cerebral glucose uptake and oxidation of succinic acid in mitochondria. Conditions: cited from earlier work.
Series [2] has as its system mice of ddK strain. The series is described as follows: KCN anoxia test. The series is classed as in vivo.
Series [3] concerns sensitized bronchial muscle. The series is described as follows: Antiallergic action: inhibition of egg albumin-induced contraction of sensitized guinea pig bronchial muscle. The series is classed as tissue-based, guinea pigs of Hartley strain. Conditions: Cavia porcellus; for inhibition at 10 µM: 10^-5 M; for inhibition at 1 µM: 10^-6 M; for inhibition at 0.1 µM: 10^-7 M; for inhibition at 0.01 µM: 10^-8 M; for inhibition at 100 µM: 10^-4 M.

Series [4] can be described thus: Acute toxicity (LD50). Conditions: mouse, in vivo; male ddK mice, 20-23 g, 10 animals per group, oral. The source says:
Toxicity studies also made it clear that the terpene amino alcohols according to the present invention are of low toxicity.

The conditions of series [5]: cited from earlier work.

With “dihydroergotoxine mesilate [reference compound]”, in series [1], the “reported cerebral actions (in words)” value is “promotes cerebral glucose uptake and oxidation of succinic acid in mitochondria and increases the cerebral blood flow”. The “Survival rate (%)” value in series [2] (3 mg/kg i.p., KCN 2.65 mg/kg i.v. after 30 minutes, 180 seconds, control 0) came out at 10.0%. For the same compound, in series [2] (3 mg/kg i.p., KCN 2.65 mg/kg i.v. after 30 minutes, 180 seconds, control 0/8), the “Number of survivals/Number of mice used” value is reported as 1/10. For the same compound, the “anti-anoxic action (in words)” value in series [2] (KCN anoxia test) is “not sufficiently remarkable”.
Regarding `CC(C)CCCC(C)CCCC(C)CCCC(C)(O)C(O)CN(C)C` (stereo not drawn) [Compound (32)], in series [3], the inhibition at 10 µM worked out at 40%, the inhibition at 1 µM came to 61.1%, the inhibition at 0.1 µM amounted to 25% and the inhibition at 0.01 µM is 10%. Besides, the 50% lethal dose (LD50) in series [4] was 3880 mg/kg.
For `O=C(O)c1cc(=O)c2c(OCC(O)COc3cccc4oc(C(=O)O)cc(=O)c34)cccc2o1` [Disodium cromoglicate, disodium cromoglicate, reference compound], in series [3], the inhibition at 100 µM was 32.1%, the inhibition at 10 µM was 21%, the inhibition at 1 µM turned out to be 7.8% and the inhibition at 0.1 µM is 0%. Moreover, the inhibition at 0.01 µM in series [3] is 0%. In series [5] (administered by the oral route), the “antiallergic effect (in words)” value is “does not produce an antiallergic effect”.
Consider `COc1ccc(/C=C/C(=O)Nc2ccccc2C(=O)O)cc1OC` [Tranilast, tranilast, reference compound], for which, in series [3], the inhibition at 100 µM came out at 32.1%, the inhibition at 10 µM is 54.8%, the inhibition at 1 µM was 21% and the inhibition at 0.1 µM came to 0%. Further, the inhibition at 0.01 µM in series [3] came to 0%. The side effects entry in series [5] (prior art) was “cystitis-like symptoms such as hematuria, pyuria and dysuria”.

As usually defined, the inhibition is the percentage by which the read-out fell short of the control. What is called LD50 is the dose at which mortality reaches 50%.
